The source of these data is ChEMBL document CHEMBL5365540, “Structure-activity relationship studies and biological properties evaluation of peptidic NRP-1 ligands: Investigation of N-terminal cysteine importance” (Bioorg Med Chem, 2023).

*1 amine or outer side, *2 acyl side, *3 side chain or, on linkers, in order; H or OH if unused. Where a SMILES comes first, the peptide text is derived from it. Side-chain parts run from the residue outwards. [ ]: non-standard residue; d: D form. The star is where a group is joined. ξ: configuration not given here. Oic(3aξ,7aξ) = O=C(O)[C@@H]1CC2CCCCC2N1; X1 = O=C([C@H](CCCS)N[*:1])[*:2]; hArg = N=C(N)NCCCC[C@H](N)C(=O)O; hCys = N[C@@H](CCS)C(=O)O; X2 = N[C@@H](CCCS)C(=O)*; Dab = NCC[C@H](N)C(=O)O; Dap = NC[C@H](N)C(=O)O; X3 = CSC[C@H](N)C(=O)*; Mpa = O=C(O)CCS

The assay deals with VEGA-NRP1 (Homo sapiens, UniProt O14786). Briefly: Inhibition of human biotinylated-VEGFA165 binding to recombinant human NRP-1 measured after 2 hrs by chemiluminescent based ELISA. The assay is classed as protein assay. To be noted: read-out: IC50.
Chain of VEGA-NRP1 (P15692 whole entry): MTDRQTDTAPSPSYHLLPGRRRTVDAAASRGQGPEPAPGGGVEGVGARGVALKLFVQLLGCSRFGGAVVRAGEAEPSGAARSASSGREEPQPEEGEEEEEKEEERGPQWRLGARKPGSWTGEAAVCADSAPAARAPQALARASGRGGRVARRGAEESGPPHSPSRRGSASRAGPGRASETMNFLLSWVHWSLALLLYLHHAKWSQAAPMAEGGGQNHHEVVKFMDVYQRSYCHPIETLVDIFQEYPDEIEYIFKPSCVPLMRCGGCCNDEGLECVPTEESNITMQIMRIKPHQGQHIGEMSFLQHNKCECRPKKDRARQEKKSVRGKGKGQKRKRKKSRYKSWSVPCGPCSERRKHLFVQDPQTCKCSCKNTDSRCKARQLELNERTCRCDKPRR
Chain of VEGA-NRP1 (O14786 whole entry): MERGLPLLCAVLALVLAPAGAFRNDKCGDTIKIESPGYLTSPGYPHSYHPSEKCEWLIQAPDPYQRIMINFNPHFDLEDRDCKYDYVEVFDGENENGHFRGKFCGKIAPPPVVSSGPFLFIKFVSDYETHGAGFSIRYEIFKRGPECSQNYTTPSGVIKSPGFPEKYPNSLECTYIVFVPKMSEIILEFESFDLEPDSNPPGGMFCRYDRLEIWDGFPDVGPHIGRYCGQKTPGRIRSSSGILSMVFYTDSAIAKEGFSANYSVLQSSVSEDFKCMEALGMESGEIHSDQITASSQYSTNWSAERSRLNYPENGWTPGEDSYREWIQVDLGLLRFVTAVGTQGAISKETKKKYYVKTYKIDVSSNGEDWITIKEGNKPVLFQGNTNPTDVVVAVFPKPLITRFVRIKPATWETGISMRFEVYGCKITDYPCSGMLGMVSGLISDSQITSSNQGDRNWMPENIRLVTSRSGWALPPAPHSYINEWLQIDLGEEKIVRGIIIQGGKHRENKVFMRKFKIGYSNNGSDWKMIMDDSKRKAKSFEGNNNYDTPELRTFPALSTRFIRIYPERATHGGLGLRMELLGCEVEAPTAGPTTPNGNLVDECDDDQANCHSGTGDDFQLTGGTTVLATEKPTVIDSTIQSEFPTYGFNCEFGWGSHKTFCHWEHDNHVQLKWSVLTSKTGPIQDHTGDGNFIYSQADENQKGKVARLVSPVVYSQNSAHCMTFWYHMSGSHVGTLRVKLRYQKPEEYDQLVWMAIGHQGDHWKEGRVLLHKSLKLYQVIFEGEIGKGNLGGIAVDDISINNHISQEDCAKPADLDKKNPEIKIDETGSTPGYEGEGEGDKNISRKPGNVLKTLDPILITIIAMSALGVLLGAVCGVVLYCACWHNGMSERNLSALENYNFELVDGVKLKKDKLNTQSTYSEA

Consider `N=C(N)NCCCC[C@H](NC(=O)[C@@H](N)CO)C(=O)NCCCC[C@H](N)C(=O)N[C@@H](CCN)C(=O)N1C2CCCCC2C[C@H]1C(=O)N[C@@H](CCCNC(=N)N)C(=O)O` (stereo partly drawn) (HELM PEPTIDE1{K.[Dab].[O=C([C@@H]1CC2CCCCC2N1[*:1])[*:2]].R}|PEPTIDE2{S.[N=C(N)NCCCC[C@H](N[*:1])C(=O)[*:2]]}$PEPTIDE1,PEPTIDE2,1:R3-2:R2$$$V2.0), for which the concentration for half-maximal inhibition (IC50) was 810 nM.
With `CSC[C@H](N)C(=O)N[C@@H](CCCCNC(=O)[C@@H](N)CCCCNC(=N)N)C(=O)N[C@@H](CCN)C(=O)N1C2CCCCC2C[C@H]1C(=O)N[C@@H](CCCNC(=N)N)C(=O)O` (stereo partly drawn) (H-C(Me)K(hArg)[Dab][Oic(3aξ,7aξ)]R-OH), the half-inhibitory concentration (IC50) is 2480 nM.
The same measure for `N=C(N)NCCCC[C@H](NC(=O)[C@@H](N)CN)C(=O)NCCCC[C@H](N)C(=O)N[C@@H](CCN)C(=O)N1C2CCCCC2C[C@H]1C(=O)N[C@@H](CCCNC(=N)N)C(=O)O` (stereo partly drawn) (H-K([hArg-Dap])[Dab][Oic(3aξ,7aξ)]R-OH): 330 nM; for `N=C(N)NCCCC[C@H](N)C(=O)NCCCC[C@H](NC(=O)[C@@H](N)CCS)C(=O)N[C@@H](CCN)C(=O)N1C2CCCCC2C[C@H]1C(=O)N[C@@H](CCCNC(=N)N)C(=O)O` (stereo partly drawn) (H-[hCys]K(hArg)[Dab][Oic(3aξ,7aξ)]R-OH): 700 nM.
Regarding `N=C(N)NCCCC[C@H](N)C(=O)NCCCC[C@H](NC(=O)[C@@H](N)CO)C(=O)N[C@@H](CCN)C(=O)N1C2CCCCC2C[C@H]1C(=O)N[C@@H](CCCNC(=N)N)C(=O)O` (stereo partly drawn) (HELM PEPTIDE1{S.K.[Dab].[O=C([C@@H]1CC2CCCCC2N1[*:1])[*:2]].R}|PEPTIDE2{[N=C(N)NCCCC[C@H](N)C(=O)[*:2]]}$PEPTIDE1,PEPTIDE2,2:R3-1:R2$$$V2.0), the IC50 worked out at 1540 nM.
In the case of `CSC[C@H](N)C(=O)N[C@@H](CCCCNC(=N)N)C(=O)NCCCC[C@H](N)C(=O)N[C@@H](CCN)C(=O)N1C2CCCCC2C[C@H]1C(=O)N[C@@H](CCCNC(=N)N)C(=O)O` (stereo partly drawn) (H-K([hArg-X3])[Dab][Oic(3aξ,7aξ)]R-OH), the half-maximal inhibitory concentration (IC50) was determined as 2820 nM.
The figure for `CC[C@H](N)C(=O)N[C@@H](CCCCNC(=N)N)C(=O)NCCCC[C@H](N)C(=O)N[C@@H](CCN)C(=O)N1C2CCCCC2C[C@H]1C(=O)N[C@@H](CCCNC(=N)N)C(=O)O` (stereo partly drawn) (HELM PEPTIDE1{K.[Dab].[O=C([C@@H]1CC2CCCCC2N1[*:1])[*:2]].R}|PEPTIDE2{[Abu].[N=C(N)NCCCC[C@H](N[*:1])C(=O)[*:2]]}$PEPTIDE1,PEPTIDE2,1:R3-2:R2$$$V2.0) is 2480 nM; for `N=C(N)NCCCC[C@H](NC(=O)[C@@H](N)CCS)C(=O)NCCCC[C@H](N)C(=O)N[C@@H](CCN)C(=O)N1C2CCCCC2C[C@H]1C(=O)N[C@@H](CCCNC(=N)N)C(=O)O` (stereo partly drawn) (H-K([hArg-hCys])[Dab][Oic(3aξ,7aξ)]R-OH) it is 630 nM.
The same measure for `N=C(N)NCCCC[C@H](N)C(=O)NCCCC[C@H](NC(=O)[C@@H](N)CN)C(=O)N[C@@H](CCN)C(=O)N1C2CCCCC2C[C@H]1C(=O)N[C@@H](CCCNC(=N)N)C(=O)O` (stereo partly drawn) (H-[Dap]K(hArg)[Dab][Oic(3aξ,7aξ)]R-OH): 440 nM; for `N=C(N)NCCCC[C@H](NC(=O)[C@@H](N)CCCS)C(=O)NCCCC[C@H](N)C(=O)N[C@@H](CCN)C(=O)N1C2CCCCC2C[C@H]1C(=O)N[C@@H](CCCNC(=N)N)C(=O)O` (stereo partly drawn) (H-K([hArg-X2])[Dab][Oic(3aξ,7aξ)]R-OH): 1330 nM.
`N=C(N)NCCCC[C@H](NC(=O)CCS)C(=O)NCCCC[C@H](N)C(=O)N[C@@H](CCN)C(=O)N1C2CCCCC2C[C@H]1C(=O)N[C@@H](CCCNC(=N)N)C(=O)O` (stereo partly drawn) (H-K([hArg-Mpa])[Dab][Oic(3aξ,7aξ)]R-OH): the IC50 stood at 2170 nM.
As for `N=C(N)NCCCC[C@H](N)C(=O)NCCCC[C@H](NC(=O)CCS)C(=O)N[C@@H](CCN)C(=O)N1C2CCCCC2C[C@H]1C(=O)N[C@@H](CCCNC(=N)N)C(=O)O` (stereo partly drawn) ([Mpa]K(hArg)[Dab][Oic(3aξ,7aξ)]R-OH), the IC50 is 1130 nM.
Take `N=C(N)NCCCC[C@H](N)C(=O)NCCCC[C@H](NC(=O)[C@@H](N)CCCS)C(=O)N[C@@H](CCN)C(=O)N1C2CCCCC2C[C@H]1C(=O)N[C@@H](CCCNC(=N)N)C(=O)O` (stereo partly drawn) (H-[X1]K(hArg)[Dab][Oic(3aξ,7aξ)]R-OH): the IC50 came out at 890 nM.
